Measurements from patent US7776572B2, “Method for reducing loss of enzyme activity during storage” (Corning Incorporated, priority 1996, dated 2010).

Columns and labels:
IgG protein = experiment: In-mold coating of 24-well polystyrene plates, protein binding by colloidal gold staining; details: 1% isopropanol solution
Description: The in-mold coating aspects of the invention were tested by molding 24-well polystyrene plates. […] The 0.01% concentration was estimated to produce less than one monolayer of surfactant on the finished product, while the 0.1% concentration produced about 7 monolayers. The surfactant was applied to the mold using a Crown sprayer (Crown Industrial Products, Hebron, Ill.; Catalog #8011), which produces a sufficiently fine spray of droplets to uniformly coat the mold. The mold was sprayed before each part was made.

MDCK cells = experiment: MDCK cell attachment to coated polystyrene 24-well plates; assay type: cell-based; details: coated PS 24-well, gamma sterilized, media with 5% FBS, two days, visual
Description: (§1) The procedures used were as follows. Polystyrene 24-well plates were coated with the non-ionic surfactants listed in Table 5 in accordance with the procedures described in Materials and Methods. Uncoated plates were used as a control. For comparison, plates with a covalently attached acrylamide coating (Corning Costar Catalog #2500) and with a stearic acid coating were also tested. The stearic acid coating was applied in the same manner as the non-ionic surfactants again using a 0.1% (w/v) solution.
(§2) The plates were gamma sterilized at 1.5 Mrad and then inoculated with 5.6×10^4 MDCK […] per well in 1 ml of complete media containing 5% FBS (Fetal Bovine Serum). Incubation was carried out at 37° C. in a 5% CO2 atmosphere for two days. The plates were fixed and stained, and cell attachment was noted. Following this, the wells were stained using the colloidal gold technique to detect bound protein. Only visual observations were made.
Experiments were also performed with cells suspended in serum. The cells used in these experiments were MDCK cells. The surfactants used were the same as used in Table 5. Again, reduced binding of the cells to surfaces treated with a non-ionic surfactant was observed.

bound protein = experiment: Colloidal gold staining of bound protein after MDCK culture in media containing 5% FBS, visual; details: colloidal gold after cell culture, visual observation
Description: as §1, §2

IgG (horse) = experiment: IgG binding to 24-well plates, surfactant dried or not dried before H2O rinse, colloidal Au; details: 0.5% surfactant in H2O/isopropanol (90/10)
Description: Duplicate 24-well plates were prepared as follows. Individual wells were filled with 3 ml of non-ionic surfactants at 0.5% (weight/volume) in H2O/isopropanol (90/10 weight/volume).
The duplicate plates were incubated for 30 minutes at room temperature on a rocker table and then emptied. One plate was tapped out and then allowed to dry at room temperature in a hood. It was then rinsed 5× with dI H2O. The second plate was not allowed to dry, but instead was immediately rinsed 5× with H2O. The plates were then tested for protein binding by filling each well with 0.5 ml of IgG (horse) at 10 μg/ml in PBS buffer and incubating for 30 minutes on a rocker table at room temperature. The plates were then rinsed with dI H2O and stained overnight with colloidal Au.

[1] = test system: GAM-IgG-HRP (goat-anti-mouse-IgG-horseradish peroxidase enzyme labeled antibody); experiment: Bound enzyme labeled antibody on strips exposed to aqueous surfactant, rinsed or not rinsed, ABTS readout; details: 0.1% surfactant in H2O/isopropanol (95/5), not dried
Description: Medium binding (catalog #2587) and high binding (catalog #2581) polystyrene 96-well plates (8-well strips) manufactured by Corning Costar were used as follows. […] Strips were incubated for 30 minutes at room temperature on a rocker table. Strips were then emptied and tapped out. […] Immediately following this procedure, each well was aliquoted 0.10 ml of GAM-IgG-HRP (goat-anti-mouse-IgG-horseradish peroxidase enzyme labeled antibody; Kirkegaard and Perry, Gaithersburg, Md., Catalog #074-1806) at 1.0 μg/ml in PBS buffer pH=7.4). Strips were incubated for one hour at room temperature on a rocker table. Strips were then rinsed 5× with PBS buffer containing 0.02% Tween-20 followed by post rinsing with H2O. […] Absorbance at 405 nm was measured on a Cambridge Technologies #7520 Plate Reader.

IgG = experiment: Coating durability using water washes, IgG binding by colloidal gold
Description: Polystyrene plates having 24 wells (Corning Costar #9447) were coated with these surfactants as described in Materials and Methods. Durability was tested by adding dI H2O to the wells of a test plate (3.0 mls/well), following which the plate was placed on a rocker table. […] The protein solution was incubated with the plate on a rocker table for 30 minutes at 23° C., following which the plate was H2O rinse 3× (3 mls each time). The colloidal gold staining procedure described above was used to reveal bound protein. The staining comprised an overnight incubation on a rocker table at 23° C., a dI H2O rinse, drying at room temperature, and reading at 550 nm.

BSA = experiment: Polymer blends molded into petri dishes, BSA binding by colloidal gold; details: blended at 5% into polypropylene; silver enhancer
Fetal Bovine Serum (FBS) = experiment: Polymer blends molded into petri dishes, FBS protein binding by colloidal gold; details: blended at 5% into polypropylene; silver enhancer
Description: Low binding non-ionic surfactant molecules were blended at 5% (except as noted in Table 13) into a base polymer using a twin screw extruder, then injection molded into the shape of 35 mm petri dishes. Proteins tested were BSA and Fetal Bovine Serum (FBS). Protein binding was determined using a colloidal gold staining procedure as described above. In the case of the polypropylene and EVA blends, a silver enhancer was used (Sigma Chem. Co., St, Louis, Mo., Kit #SE-100).

Row | protein binding of in-mold coated part (IgG protein) | Absorbance (550 nm) Dried before H2O rinse (IgG (horse); dried, then rinsed 5x) | Absorbance (550 nm) H2O rinsed before drying (IgG (horse); not dried, rinsed 5x immediately) | Absorbance (550 nm) Initial (IgG; coated polystyrene, no water wash) | Absorbance (550 nm) 1 Time 1 hr 23° C. (IgG; dI H2O wash 1 time, 1 hr, 23° C.) | Absorbance (550 nm) 1 Time 24 hr 23° C. (IgG; dI H2O wash 1 time, 24 hr, 23° C.) | Absorbance (550 nm) 1 Time 24 hr 37° C. (IgG; dI H2O wash 1 time, 24 hr, 37° C.) | Absorbance (550 nm) 1 Time 24 hr 70° C. (IgG; dI H2O wash 1 time, 24 hr, 70° C.) | Absorbance (550 nm) 6 Times 30 min each 23° C. (IgG; dI H2O wash 6 times, 30 min each, 23° C.) | Bound Protein Absorbance (550 nm) BSA (BSA) | Bound Protein Absorbance (550 nm) FBS (Fetal Bovine Serum (FBS)) | Compound | MDCK Attachment (MDCK cells) | Visual Color Upon Protein Staining (bound protein) | Absorbance (405 nm) High Binding Polystyrene No Rinse ([1]; not rinsed) | Absorbance (405 nm) Medium Binding Polystyrene No Rinse ([1]; not rinsed) | Absorbance (405 nm) High Binding Polystyrene Rinsed ([1]; rinsed 5x with dI H2O) | Absorbance (405 nm) Medium Binding Polystyrene Rinsed ([1]; rinsed 5x with dI H2O)
1 | low protein binding |  |  |  |  |  |  |  |  |  |  | CCCCCCCCCCCCCCCCCC(=O)OCC(O)CO (centres unmarked) [GLYCEROL MONO-STEARATE] |  |  |  |  |  | 
2 |  | 0.14-0.16 | 0.13-0.16 | 0.00 | 0.02 | 0.05 | 0.10 | 0.10 | 0.10 | 0.153 | 0.270 | PEO(20) SORBITOL MONO-LAURATE | None | None | 0.00 | 0.00 | 2.00 | 1.90
